Test results as given in patent publication US20230016424A1, “HYBRID AMIDE DERIVATIVES OF AMPHOTERICIN B” (The Board of Trustees of the University of Illinois, priority 2019, published 2023).
≈ marks a conversion by molar mass, not a printed value.

How the values were obtained:
C. albicans = assay: MIC; assay type: cell-based
A. fumigatus 1100 = assay: MIC; assay type: cell-based
C. albicans SN250 = assay: MIC; assay type: cell-based, Candida albicans
C. tropicalis = assay: MIC; assay type: cell-based
[1] = tested on: C. albicans SN250, C. albicans, C. krusei, C. glabrata, C. tropicalis, A. fumigatus 91, 1163, 1100; assay: Average MIC over the tested strains; assay type: cell-based; conditions: average over the 8 listed strains
A. fumigatus 91 = assay: MIC; assay type: cell-based
A. fumigatus 1163 = assay: MIC; assay type: cell-based
C. krusei = assay: MIC; assay type: cell-based
C. glabrata = assay: MIC; assay type: cell-based

SMILES: CC(CO)NC(=O)C1C(O)CC2(O)CC(O)CC(O)C(O)CCC(O)CC(O)CC(=O)OC(C)C(C)C(O)C(C)C=CC=CC=CC=CC=CC=CC=CC(OC3OC(C)C(O)C(N)C3O)CC1O2 (stereo not drawn) [AC]
- MIC C. albicans (C. albicans): 0.3 µM (≈ 0.294 µg/mL)
- MIC A. fumigatus 1100 (A. fumigatus 1100): 1 µM (≈ 0.981 µg/mL)
- MIC C. albicans SN250 (C. albicans SN250): 0.3 µM (≈ 0.294 µg/mL)
- MIC C. tropicalis (C. tropicalis): 0.35 µM (≈ 0.343 µg/mL)
- MIC [1]: 0.713 µM
- MIC A. fumigatus 91 (A. fumigatus 91): 2 µM (≈ 1.96 µg/mL)
- MIC A. fumigatus 1163 (A. fumigatus 1163): 1 µM (≈ 0.981 µg/mL)
- MIC C. krusei (C. krusei): 0.45 µM (≈ 0.442 µg/mL)
- MIC C. glabrata (C. glabrata): 0.3 µM (≈ 0.294 µg/mL)

SMILES: CCC(CO)NC(=O)C1C(O)CC2(O)CC(O)CC(O)C(O)CCC(O)CC(O)CC(=O)OC(C)C(C)C(O)C(C)C=CC=CC=CC=CC=CC=CC=CC(OC3OC(C)C(O)C(N)C3O)CC1O2 (stereo not drawn) [AD]
- MIC C. albicans (C. albicans): 0.35 µM (≈ 0.348 µg/mL)
- MIC A. fumigatus 1100 (A. fumigatus 1100): 1 µM (≈ 0.995 µg/mL)
- MIC C. albicans SN250 (C. albicans SN250): 0.3 µM (≈ 0.299 µg/mL)
- MIC C. tropicalis (C. tropicalis): 0.4 µM (≈ 0.398 µg/mL)
- MIC [1]: 0.731 µM
- MIC A. fumigatus 91 (A. fumigatus 91): 2 µM (≈ 1.99 µg/mL)
- MIC A. fumigatus 1163 (A. fumigatus 1163): 1 µM (≈ 0.995 µg/mL)
- MIC C. krusei (C. krusei): 0.5 µM (≈ 0.498 µg/mL)
- MIC C. glabrata (C. glabrata): 0.3 µM (≈ 0.299 µg/mL)

SMILES: CC(C)CC(CO)NC(=O)C1C(O)CC2(O)CC(O)CC(O)C(O)CCC(O)CC(O)CC(=O)OC(C)C(C)C(O)C(C)C=CC=CC=CC=CC=CC=CC=CC(OC3OC(C)C(O)C(N)C3O)CC1O2 (stereo not drawn) [AE]
- MIC C. albicans (C. albicans): 0.75 µM (≈ 0.767 µg/mL)
- MIC A. fumigatus 1100 (A. fumigatus 1100): 1 µM (≈ 1.02 µg/mL)
- MIC C. albicans SN250 (C. albicans SN250): 1 µM (≈ 1.02 µg/mL)
- MIC C. tropicalis (C. tropicalis): 0.5 µM (≈ 0.512 µg/mL)
- MIC [1]: 0.956 µM
- MIC A. fumigatus 91 (A. fumigatus 91): 2 µM (≈ 2.05 µg/mL)
- MIC A. fumigatus 1163 (A. fumigatus 1163): 1 µM (≈ 1.02 µg/mL)
- MIC C. krusei (C. krusei): 1 µM (≈ 1.02 µg/mL)
- MIC C. glabrata (C. glabrata): 0.4 µM (≈ 0.409 µg/mL)

SMILES: CC1C=CC=CC=CC=CC=CC=CC=CC(OC2OC(C)C(O)C(N)C2O)CC2OC(O)(CC(O)CC(O)C(O)CCC(O)CC(O)CC(=O)OC(C)C(C)C1O)CC(O)C2C(=O)NC(CO)C(C)(C)C (stereo not drawn) [AF]
- MIC C. albicans (C. albicans): 0.5 µM (≈ 0.512 µg/mL)
- MIC A. fumigatus 1100 (A. fumigatus 1100): 2 µM (≈ 2.05 µg/mL)
- MIC C. albicans SN250 (C. albicans SN250): 0.4 µM (≈ 0.409 µg/mL)
- MIC C. tropicalis (C. tropicalis): 0.75 µM (≈ 0.767 µg/mL)
- MIC [1]: 1.131 µM
- MIC A. fumigatus 91 (A. fumigatus 91): 2 µM (≈ 2.05 µg/mL)
- MIC A. fumigatus 1163 (A. fumigatus 1163): 2 µM (≈ 2.05 µg/mL)
- MIC C. krusei (C. krusei): 1 µM (≈ 1.02 µg/mL)
- MIC C. glabrata (C. glabrata): 0.4 µM (≈ 0.409 µg/mL)

SMILES: COCCNC(=O)C1C(O)CC2(O)CC(O)CC(O)C(O)CCC(O)CC(O)CC(=O)OC(C)C(C)C(O)C(C)C=CC=CC=CC=CC=CC=CC=CC(OC3OC(C)C(O)C(N)C3O)CC1O2 (stereo not drawn) [AG]
- MIC C. albicans (C. albicans): 035 µM (≈ 34.3 µg/mL)
- MIC A. fumigatus 1100 (A. fumigatus 1100): 1 µM (≈ 0.981 µg/mL)
- MIC C. albicans SN250 (C. albicans SN250): 0.4 µM (≈ 0.392 µg/mL)
- MIC C. tropicalis (C. tropicalis): 0.4 µM (≈ 0.392 µg/mL)
- MIC [1]: 0.806 µM
- MIC A. fumigatus 91 (A. fumigatus 91): 2 µM (≈ 1.96 µg/mL)
- MIC A. fumigatus 1163 (A. fumigatus 1163): 1 µM (≈ 0.981 µg/mL)
- MIC C. krusei (C. krusei): 1 µM (≈ 0.981 µg/mL)
- MIC C. glabrata (C. glabrata): 0.3 µM (≈ 0.294 µg/mL)
